Test results from patent publication US20040126437A1, “Typing natural products” (priority 2000, published 2004).
pEC50: −log10 of the molar value. Converted amounts (≈) assume the structure as drawn.

Experiments:
[1] = Hepatocytes; read-out: Hepatoprotection Effect IC50 μM (Hepatocytes); cited from earlier work
[2] = tested on: H. pylori NTCT 11916; settings: strain NTCT 11916; cited from earlier work
[3] = tested on: fibrosarcoma (line HT-1080); settings: HT1080 fibrosarcoma cells; cited from earlier work
[4] = tested on: H. pylori ATCC 43504; settings: strain ATCC 43504; cited from earlier work
[5] = tested on: uterus colon carcinoma (line L5-26); settings: L5-26 colon cells; cited from earlier work
[6] = tested on: H. pylori NTCT 11637; settings: strain NTCT 11637; cited from earlier work
[7] = cited from earlier work
[8] = tested on: Escherichia coli; experiment: Antibacterial activity, inhibition halos in culture; assay type: cell-based; settings: Escherichia coli culture
Text: (§1) The insulated compounds DCBEN, DHCA, E and mixture of E+DPB have their antibacterial properties tested in cultures of E.coli, Pseudomonas aeruginosa, Staphylococcus aureus and Streptococcus faecalis. Inhibition halos (in mm) and the obtained data recorded as in FIG. 1.
(§2) Antibacterial activity of the compounds K, G1, G2 e L2 has been evaluated in cultures of E.coli, Pseudomonas aeruginosa, Staphylococcus aureus and Streptococcus faecalis. Inhibition halos have been measured (mm) and the data recorded as in FIG. 1. S.aureus, S.faecalis e E.coli, are sensitive to the tested compounds, just varying the halos, the compound G2 has the most toxity in cultures of S.aureus e S.faecalis. None of the tested compounds had effect in P.aeruginosa.

[9] = tested on: Streptococcus faecalis; experiment: as above; assay type: cell-based; settings: for Antibacterial activty, inhibition halo: Streptococcus faecalis culture
Text: as §1, §2

[10] = tested on: Staphylococcus aureus; experiment: as above; assay type: cell-based; settings: for Antibacterial activty, inhibition halo: Staphylococcus aureus culture
Text: as §1, §2

[11] = tested on: Pseudomonas aeruginosa; experiment: as above; assay type: cell-based
Text: as §1, §2

[12] = tested on: T. cruzi trypomastigotes; experiment: Effects against T. cruzi trypomastigotes cultures; assay type: cell-based, Trypanosoma cruzi
Procedure: FIG. 2 are recorded ID50 data related to trypomastigotes cultures (one of the growing stages of Trypanosoma cruzi (T.cruzi)) also to the compounds DCBEN, DHCA, E and mixture E+DPB and the effects of said compounds extracted from propolis trypomastigotes of T.cruzi (in mg/mL). […] The same result for Violet Crystal is 0.205 mg/mL, as previously mentioned. The results for insulated compounds are greater than the Violet Crystal.

[13] = tested on: insulated cavy trachea (ICT); settings: ICT contracted with hystamine (1 μM), cited from earlier work; for Emax, tension: relaxation
[14] = insulated labdan acids; cited from earlier work

Structure (SMILES) | IC50 [1] | MIC (H. pylori mg/mL) NTCT 11916 [2] | Antitumor activity (LD50 μg/mL) HT1080 (Fibrosarcoma) [3] | MIC (H. pylori mg/mL) ATCC 43504 [4] | Antitumor activity (LD50 μg/mL) L5-26 (Colon) [5] | MIC (H. pylori mg/mL) NTCT 11637 [6] | Antioxidant Activity (DPPH) [7] | Antibacterial activty, inhibition halo [8] | Antibacterial activty, inhibition halo [9] | Antibacterial activty, inhibition halo [10] | Antibacterial activty, inhibition halo [11] | further results
COc1ccc(-c2oc3cc(O)cc(O)c3c(=O)c2O)cc1 [Compound 22] | 22 µM | 1.0 mg/mL (≈ 3330 µM) | 26.97 µg/mL | >1 mg/mL | 70.98 µg/mL | 1.0 mg/mL (≈ 3330 µM) |  |  |  |  |  | 
CC(C)=CCc1cc(/C=C/C(=O)O)cc(C/C=C(\C)COC(=O)CCc2ccccc2)c1O [Compound 24] | 15.2 µM | 0.25 mg/mL (≈ 557 µM) | >100 µg/mL | 0.25 mg/mL (≈ 557 µM) | >100 µg/mL | 0.13 mg/mL (≈ 290 µM) | 12.2 µg/mL |  |  |  |  | 
C=C(C)C1Cc2cc(/C=C/C(=O)O)cc(CC=C(C)C)c2O1 (stereo not shown) [Compound 25] |  | 0.13 mg/mL (≈ 436 µM) | >100 µg/mL | 0.13 mg/mL (≈ 436 µM) | >100 µg/mL | 0.25 mg/mL (≈ 838 µM) | 15.0 µg/mL |  |  |  |  | 
COc1cc([C@@H]2OC=C(c3cc4cc(O)c(C(C)=O)cc4o3)C[C@H]2COC(C)=O)ccc1O [Compound 26] | 63.5 µM | >1 mg/mL | 13.9 µg/mL | >1 mg/mL | 12.4 µg/mL | >1 mg/mL | 29.1 µg/mL |  |  |  |  | 
COc1cc([C@@H]2c3c(oc4cc(C(C)=O)c(O)cc34)C(=O)C[C@H]2COC(C)=O)ccc1O [Compound 27] | 15 µM | >1 mg/mL | 43.2 µg/mL | >1 mg/mL | 13.7 µg/mL | >1 mg/mL | 30.1 µg/mL |  |  |  |  | 
COc1cc(C=O)ccc1O [Compound G1] |  |  |  |  |  |  |  | + (+ halo < or = to 8 mm) | + (+ halo < or = to 8 mm) | + (+ halo < or = to 8 mm) | Ø | 
COc1cc(C=CC=O)ccc1O [Compound G2, 3-methoxy-4-hydroxycinnamaldehyde] |  |  |  |  |  |  |  | + (+ halo < or = to 8 mm) | ++ (++ halo > or = to 8 mm and < 12 mm) | ++ (++ halo > or = to 8 mm and < 12 mm) | Ø | Antibacterial effect in words ([9]; S.faecalis culture): most toxity; Antibacterial effect in words ([10]; S.aureus culture): most toxity
CN(C)c1ccc(C(=C2C=CC(=[N+](C)C)C=C2)c2ccc(N(C)C)cc2)cc1.[Cl-] [Cristal violet, reference compound] |  |  |  |  |  |  |  |  |  |  |  | ID50/24 h [12]: 205 µg/mL
CC1(C)C=Cc2cc(C=CC(=O)O)ccc2O1 [DCBEN, 2,2-Dimethyl-6-carboxiethenyl-2H-1-benzopyran] |  |  |  |  |  |  |  | + (+ halo < or = to 8 mm) | ++ (++ halo > or = to 8 mm and < 12 mm) | ++ (++ halo > or = to 8 mm and < 12 mm) | Ø | pEC50 ([13]; read-out: CE50 (the source's name)): 6.60; Emax, tension [13]: 0.80 ± 0.05 g; ID50/24 h [12]: 1696 ± 32 µg/mL (≈ 7370 µM)
CC(C)=CCc1cc(C=CC(=O)O)cc2c1OC(C)(C)C=C2 [E] |  |  |  |  |  |  |  | + (+ halo < or = to 8 mm) | + (+ halo < or = to 8 mm) | + (+ halo < or = to 8 mm) | Ø | 
CC(C)=CCc1cc(C=CC(=O)O)ccc1O [PHCA, 3-prenyl-4-hydroxycinnamic acid] |  |  |  |  |  |  |  |  |  |  |  | Emax, tension [13]: 1.258 ± 84 g
C=C1CC[C@@H]2[C@](C)(CCC[C@]2(C)C(=O)O)[C@H]1CC/C(C)=C/CO [[b], isocupressic acid] |  |  |  |  |  |  |  |  |  |  |  | Antibacterial activity by bioautography [14]: most active
C=C1CC[C@@H]2[C@](C)(CCC[C@]2(C)C(=O)O)[C@H]1CC[C@H](C)CCO [[d], imbricatoloic acid] |  |  |  |  |  |  |  |  |  |  |  | Antibacterial activity by bioautography [14]: most active
